Test results: ChEMBL document CHEMBL1201862, “PubChem BioAssay data set” (2004)
Calls of active or inactive are those of the source. Rule as the data show it, for most assays here: actives have a measured EC50 and inactives only a lower limit.

Tests used:
[1] = molecular target: NS3 (Hepatitis C virus, UniProt A3EZJ3); experiment: PubChem AID 2173; design: species or system Hepacivirus hominis
[2] = tested on: HT-1080; experiment: HT1080 cell viability loss – fluorescence readout (AID 620); type: functional, cell-based; conditions: Homo sapiens
[3] = molecular target: Luciferin 4-monooxygenase (Photinus pyralis, UniProt P08659); experiment: Counter Screen for Luciferase-based Assay Positives. [Related pubchem assays: 620, 618, 411 ]
[4] = molecular target: Estrogen receptor (Homo sapiens, UniProt P03372);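 also: potency for inhibiting coactivator peptide recruitment to the receptor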
[5] = Luminescence Cell-Based Dose Response HTS to Identify Inhibitors of 5'UTR Stem-Loop Driven Prion Protein mRNA Translation in H4 Neuroglioblastoma Cells. [Related pubchem assays: 1827 (Project Summary), 1813 (Primary HTS)]; type: functional
[6] = molecular target: T1, Estrogen receptor beta (Homo sapiens, UniProt Q92731); experiment: blockers of SRC-3 recruitment to ERβ – biochemical, ELISA, streptavidin-HRP readout, orthogonal assay, confirmation (AID 1060)
[7] = alpha-synuclein stem-loop luciferase translation blockers – H4 neuroglioma cells, luminescence, confirmation (AID 1988); type: functional, cell-based
[8] = molecular target: T1, Estrogen receptor beta
[9] = NIH3T3 cell viability loss – ATP luminescence, mouse fibroblasts, counter-screen, dose response (AID 2010); type: functional, cell-based;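 also: cells exposed to compound for about 90 hours before reading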
[10] = molecular target: 72 kDa type IV collagenase (Homo sapiens, UniProt P08253); experiment: Dose Response validation of uHTS RPN11 inhibitor hits using a MMP-2 Fluorescence assay.; type: functional
[11] = molecular target: Prothrombin (Bos taurus, UniProt P00735); experiment: thrombin protease inhibitors – biochemical, fluorescence polarization, uHTS hits, dose response (AID 602369); type: functional
[12] = cells
[13] = molecular target: Protein-tyrosine kinase 2-beta (Homo sapiens, UniProt Q14289);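 also: potency of inhibitors of PYK2 kinase phosphorylation of poly-GT substrate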
[14] = molecular target: 26S proteasome non-ATPase regulatory subunit 14 (Homo sapiens, UniProt O00487); experiment: inhibition of proteasome subunit RPN11 – biochemical, fluorescence polarization, uHTS hits, confirmation (AID 602368); type: functional
[15] = Trypanosoma cruzi growth suppression in host cells – NIH3T3 host cells, beta-gal luminescence, confirmation (AID 2044); type: functional, cell-based;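 also: intracellular parasites grown in NIH/3T3 mouse fibroblasts as host cells; luminescent beta-galactosidase reporter signal from transgenic T. cruzi replicating inside host cells; inhibitors lower the luminescence signal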
[16] = tested on: H4; experiment: Luminescence Cell-Based Dose Response HTS to Identify Activators of 5'UTR Stem-Loop Driven Prion Protein mRNA Translation in H4 Neuroglioblastoma Cells. [Related pubchem assays: 1829 (Project Summary), 1814 (Primary HTS)]; type: functional; conditions: Homo sapiens
[17] = Luminescence Cell-Based Dose Response HTS to Identify Activators of Luciferase Translation or Activity in H4 […] Cells. [Related pubchem assays: 1829 (Project Summary), 1814 (Primary HTS)]; type: functional
[18] = Luminescence Cell-Based Dose Response to Identify Activators of 5'UTR Stem-Loop Driven Prion Protein mRNA Translation in H4-C Neuroglioblastoma Cells. [Related pubchem assays: 1829 (Project Summary), 1814 (Primary HTS)]; type: functional
[19] = Luminescence Cell-Based Dose Confirmation to Identify Activators of 5'UTR Stem-Loop Driven Alpha-Synuclein mRNA Translation in H4 Neuroglioblastoma Cells. [Related pubchem assays: 1829 (Project Summary), 1814 (Primary HTS)]; type: functional
[20] = Luminescence Cell-Based Dose Confirmation HTS to Identify Activators of 5'UTR Stem-Loop Driven Alpha-Synuclein mRNA Translation in H4 Neuroglioblastoma Cells. [Related pubchem assays: 1829 (Project Summary), 1814 (Primary HTS)]; type: functional
[21] = Luminescence Cell-Based Dose Response to Identify Activators of Luciferase Translation or Activity in H4-C Neuroglioblastoma Cells. [Related pubchem assays: 1829 (Project Summary), 1814 (Primary HTS)]; type: functional
[22] = DRD fibroblast viability loss – cell-based, non-viral oncogenic, luminescence, dose response (AID 1934); type: functional; conditions: Homo sapiens
[23] = microbe, parasite or virus in culture; type: functional; conditions: Mycobacterium tuberculosis
[24] = tested on: BJ; experiment: BJ-TERT-LT-ST fibroblast viability loss – cell-based, RAS-independent, luminescence, dose response (AID 1935); type: functional; conditions: Homo sapiens;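 also: BJ fibroblasts immortalized with TERT plus LT and ST oncogenes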
[25] = Vero E6 cell cytotoxicity, dose response, cytotoxicity control for non-replicating M. tuberculosis project, secondary assay (AID 492998); type: functional, VeroE6; conditions: Vero C1008
[26] = THP-1 cell cytotoxicity, dose response, cytotoxicity control for non-replicating M. tuberculosis project (AID 489025); type: functional
[27] = molecular target: T2, Microphthalmia-associated transcription factor (Homo sapiens, UniProt O75030); experiment: reducers of TRPM1 reporter luminescence, concentration series – cell-based, SK-MEL-5, cherry-picked, set 3, MITF inhibitor project, dose response (AID 493073); type: functional;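 also: SK-MEL-5 melanoma cells with luciferase driven by the MITF target TRPM1 promoter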
T2 sequence (O75030 whole entry): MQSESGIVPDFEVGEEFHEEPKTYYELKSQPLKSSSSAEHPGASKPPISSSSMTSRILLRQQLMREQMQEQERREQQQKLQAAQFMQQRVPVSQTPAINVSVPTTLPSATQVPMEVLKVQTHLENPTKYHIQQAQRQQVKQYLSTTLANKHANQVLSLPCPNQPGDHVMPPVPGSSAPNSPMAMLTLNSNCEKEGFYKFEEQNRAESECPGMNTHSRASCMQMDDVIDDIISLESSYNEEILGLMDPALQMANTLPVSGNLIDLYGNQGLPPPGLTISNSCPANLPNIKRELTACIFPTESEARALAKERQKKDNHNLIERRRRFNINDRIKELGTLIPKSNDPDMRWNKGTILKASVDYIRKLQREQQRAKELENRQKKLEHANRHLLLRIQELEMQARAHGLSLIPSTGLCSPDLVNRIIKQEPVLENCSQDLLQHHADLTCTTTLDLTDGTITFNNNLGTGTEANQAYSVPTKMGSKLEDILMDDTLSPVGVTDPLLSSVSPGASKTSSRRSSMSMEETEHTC

[28] = tested on: BJ; experiment: cells; type: functional, cell-based; conditions: Homo sapiens
[29] = tested on: BJ; experiment: BJ-TERT fibroblast viability loss – cell-based, RAS-independent, luminescence, dose response (AID 1933); type: functional; conditions: Homo sapiens
[30] = HepG2 cell cytotoxicity, dose response, cytotoxicity control for non-replicating M. tuberculosis project (AID 489018); type: functional; conditions: Mycobacterium tuberculosis
[31] = tested on: INS1; experiment: INS-1E survival protection against cytokine death – cell-based, luminescence, retest, dose response (AID 449756); type: functional; conditions: Rattus norvegicus;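 also: cell death triggered by IL-1 beta plus TNF-alpha plus IFN-gamma mixture; protective hits raise ATP signal compared with cytokine alone wells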

T1 sequence (Q92731 whole entry): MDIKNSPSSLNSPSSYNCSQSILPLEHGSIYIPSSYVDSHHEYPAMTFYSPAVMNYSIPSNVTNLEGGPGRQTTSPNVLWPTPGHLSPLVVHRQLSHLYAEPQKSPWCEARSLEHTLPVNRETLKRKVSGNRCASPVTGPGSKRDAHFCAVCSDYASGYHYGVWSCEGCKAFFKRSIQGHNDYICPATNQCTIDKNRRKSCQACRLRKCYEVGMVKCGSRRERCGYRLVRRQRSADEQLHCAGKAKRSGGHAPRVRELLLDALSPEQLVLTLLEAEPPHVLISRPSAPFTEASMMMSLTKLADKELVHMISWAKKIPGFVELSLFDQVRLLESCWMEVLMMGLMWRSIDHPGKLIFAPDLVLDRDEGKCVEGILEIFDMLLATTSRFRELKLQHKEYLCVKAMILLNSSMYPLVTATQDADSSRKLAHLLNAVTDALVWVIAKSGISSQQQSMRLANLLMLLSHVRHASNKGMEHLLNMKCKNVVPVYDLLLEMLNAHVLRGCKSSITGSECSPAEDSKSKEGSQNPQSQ
Sequence of Protein-tyrosine kinase 2-beta (Q14289 whole entry): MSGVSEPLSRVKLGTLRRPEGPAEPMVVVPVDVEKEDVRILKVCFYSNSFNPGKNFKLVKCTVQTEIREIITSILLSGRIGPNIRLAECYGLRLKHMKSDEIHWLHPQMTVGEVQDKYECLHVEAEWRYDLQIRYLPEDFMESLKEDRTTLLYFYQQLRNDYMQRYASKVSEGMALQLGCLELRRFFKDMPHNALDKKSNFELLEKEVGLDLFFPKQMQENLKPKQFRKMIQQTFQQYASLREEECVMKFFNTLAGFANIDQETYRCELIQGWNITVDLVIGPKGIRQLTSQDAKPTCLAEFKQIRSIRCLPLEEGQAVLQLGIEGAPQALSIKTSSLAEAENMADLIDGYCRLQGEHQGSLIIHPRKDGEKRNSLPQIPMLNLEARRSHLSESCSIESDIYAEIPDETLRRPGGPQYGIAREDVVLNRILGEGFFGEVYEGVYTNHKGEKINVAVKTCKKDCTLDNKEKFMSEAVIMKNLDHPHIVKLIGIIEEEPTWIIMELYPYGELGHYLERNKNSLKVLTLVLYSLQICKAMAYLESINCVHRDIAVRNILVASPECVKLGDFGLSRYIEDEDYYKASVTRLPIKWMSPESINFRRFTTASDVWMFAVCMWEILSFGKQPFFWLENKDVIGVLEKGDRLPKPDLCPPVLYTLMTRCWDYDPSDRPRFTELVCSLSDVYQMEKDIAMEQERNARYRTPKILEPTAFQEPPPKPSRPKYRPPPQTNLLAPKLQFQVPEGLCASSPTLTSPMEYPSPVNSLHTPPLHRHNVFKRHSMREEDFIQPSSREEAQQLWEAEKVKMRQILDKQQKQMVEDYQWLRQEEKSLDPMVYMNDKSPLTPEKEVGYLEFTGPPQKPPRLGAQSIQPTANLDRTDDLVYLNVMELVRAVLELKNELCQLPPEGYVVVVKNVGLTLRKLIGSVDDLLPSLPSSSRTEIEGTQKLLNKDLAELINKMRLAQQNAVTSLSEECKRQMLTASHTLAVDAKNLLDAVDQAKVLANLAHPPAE
Sequence of 72 kDa type IV collagenase (P08253 whole entry): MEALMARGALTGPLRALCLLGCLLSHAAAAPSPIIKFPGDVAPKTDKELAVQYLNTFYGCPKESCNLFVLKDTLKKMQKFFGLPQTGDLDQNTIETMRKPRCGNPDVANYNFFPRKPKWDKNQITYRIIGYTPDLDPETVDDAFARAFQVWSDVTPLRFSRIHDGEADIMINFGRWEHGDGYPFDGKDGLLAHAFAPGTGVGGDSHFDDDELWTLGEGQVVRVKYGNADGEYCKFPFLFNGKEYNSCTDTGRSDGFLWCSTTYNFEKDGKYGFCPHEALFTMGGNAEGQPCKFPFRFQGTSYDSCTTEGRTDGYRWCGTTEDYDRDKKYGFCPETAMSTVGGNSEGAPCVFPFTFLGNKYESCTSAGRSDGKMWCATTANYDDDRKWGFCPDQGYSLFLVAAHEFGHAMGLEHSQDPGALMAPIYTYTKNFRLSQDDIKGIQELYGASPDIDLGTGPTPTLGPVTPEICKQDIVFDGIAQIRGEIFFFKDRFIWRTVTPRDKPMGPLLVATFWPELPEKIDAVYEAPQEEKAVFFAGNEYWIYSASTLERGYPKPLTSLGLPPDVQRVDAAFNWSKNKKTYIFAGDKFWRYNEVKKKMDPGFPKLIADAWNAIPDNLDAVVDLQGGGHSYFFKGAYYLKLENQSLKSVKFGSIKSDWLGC
Sequence of Luciferin 4-monooxygenase (P08659 whole entry): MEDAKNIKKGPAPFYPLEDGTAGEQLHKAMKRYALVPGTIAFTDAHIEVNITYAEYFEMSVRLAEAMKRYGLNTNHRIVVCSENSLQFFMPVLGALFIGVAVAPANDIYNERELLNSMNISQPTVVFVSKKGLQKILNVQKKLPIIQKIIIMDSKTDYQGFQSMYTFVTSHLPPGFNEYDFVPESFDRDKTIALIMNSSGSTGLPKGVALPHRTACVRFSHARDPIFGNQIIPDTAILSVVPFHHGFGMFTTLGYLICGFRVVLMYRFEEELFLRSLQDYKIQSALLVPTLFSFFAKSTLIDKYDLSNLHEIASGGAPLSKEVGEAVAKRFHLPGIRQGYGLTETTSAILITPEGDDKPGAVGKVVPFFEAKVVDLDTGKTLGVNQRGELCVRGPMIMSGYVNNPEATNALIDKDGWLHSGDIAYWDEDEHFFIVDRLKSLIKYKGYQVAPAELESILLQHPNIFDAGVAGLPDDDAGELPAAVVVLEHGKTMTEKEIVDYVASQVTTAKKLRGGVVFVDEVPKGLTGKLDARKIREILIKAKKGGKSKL
Sequence of Estrogen receptor (P03372 whole entry): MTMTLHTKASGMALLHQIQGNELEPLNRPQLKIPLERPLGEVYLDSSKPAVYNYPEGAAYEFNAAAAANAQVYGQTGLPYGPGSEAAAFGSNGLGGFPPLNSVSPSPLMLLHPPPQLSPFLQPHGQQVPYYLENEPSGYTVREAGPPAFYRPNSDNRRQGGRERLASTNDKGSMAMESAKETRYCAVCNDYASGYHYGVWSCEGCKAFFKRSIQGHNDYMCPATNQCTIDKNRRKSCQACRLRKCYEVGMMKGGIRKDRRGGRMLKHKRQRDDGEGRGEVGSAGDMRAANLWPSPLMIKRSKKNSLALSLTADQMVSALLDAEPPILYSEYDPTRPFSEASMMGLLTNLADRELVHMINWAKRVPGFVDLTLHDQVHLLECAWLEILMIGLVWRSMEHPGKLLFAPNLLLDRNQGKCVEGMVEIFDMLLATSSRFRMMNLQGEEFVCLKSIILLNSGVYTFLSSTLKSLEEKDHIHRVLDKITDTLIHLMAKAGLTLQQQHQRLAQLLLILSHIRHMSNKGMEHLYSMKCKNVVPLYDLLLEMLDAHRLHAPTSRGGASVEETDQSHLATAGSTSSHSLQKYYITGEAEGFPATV
Sequence of NS3 (A3EZJ3 whole entry): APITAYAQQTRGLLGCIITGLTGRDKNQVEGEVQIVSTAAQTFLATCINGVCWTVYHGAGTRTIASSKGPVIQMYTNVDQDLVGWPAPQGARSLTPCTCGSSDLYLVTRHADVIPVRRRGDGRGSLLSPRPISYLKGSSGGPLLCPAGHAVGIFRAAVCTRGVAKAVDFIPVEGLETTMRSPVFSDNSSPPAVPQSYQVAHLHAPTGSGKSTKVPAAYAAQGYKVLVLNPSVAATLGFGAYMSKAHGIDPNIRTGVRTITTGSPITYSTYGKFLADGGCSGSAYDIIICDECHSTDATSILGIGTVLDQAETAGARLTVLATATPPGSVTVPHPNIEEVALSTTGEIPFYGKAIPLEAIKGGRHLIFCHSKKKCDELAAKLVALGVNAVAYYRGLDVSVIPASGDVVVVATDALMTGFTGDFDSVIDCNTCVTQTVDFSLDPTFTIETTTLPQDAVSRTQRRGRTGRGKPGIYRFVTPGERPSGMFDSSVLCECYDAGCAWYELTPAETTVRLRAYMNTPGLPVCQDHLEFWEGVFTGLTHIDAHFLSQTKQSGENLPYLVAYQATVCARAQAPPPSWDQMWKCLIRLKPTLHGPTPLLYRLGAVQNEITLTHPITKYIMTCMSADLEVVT
Sequence of 26S proteasome non-ATPase regulatory subunit 14 (O00487 whole entry): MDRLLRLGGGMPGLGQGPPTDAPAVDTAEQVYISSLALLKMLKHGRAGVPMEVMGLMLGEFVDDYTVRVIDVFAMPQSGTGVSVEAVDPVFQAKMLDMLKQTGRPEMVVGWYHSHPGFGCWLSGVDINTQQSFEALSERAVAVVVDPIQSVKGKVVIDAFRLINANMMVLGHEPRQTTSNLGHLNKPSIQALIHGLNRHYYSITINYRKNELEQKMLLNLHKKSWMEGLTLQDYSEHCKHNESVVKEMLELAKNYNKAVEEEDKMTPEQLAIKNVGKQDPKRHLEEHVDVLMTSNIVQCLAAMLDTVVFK

CCc1cc2c(=O)n(Cc3ccco3)c(SCc3c(C)noc3C)nc2s1
IC50 [1]: 25.6 µM (not active)
EC50 [2]: 15.3 µM (active)
EC50 [3]: 0.34 µM (active)

CCCNC(=O)c1ccc(-c2nc3ccccc3s2)s1
IC50 [4]: 30.3 µM (not active)
EC50 [5]: 10.7 µM (inconclusive)
IC50 [6]: 102 µM (not active)
EC50 [7]: 7.23 µM (active)
IC50 [8]: > 50 µM (not active)

COC(=O)c1[nH]c2ccc(C)cc2c1NC(=O)CN1CCCc2ccccc21
EC50 [9]: > 60 µM (not active)
IC50 [10]: > 100 µM (inactive)
IC50 [6]: 1.03 µM (not active)
IC50 [11]: > 100 µM (inactive)
IC50 [8]: < 1.56 µM (active)
EC50 [12]: 0.639 µM (active)
IC50 [13]: 15.2 µM (not active)
IC50 [14]: 16.7 µM (active)
EC50 [15]: < 0.1 µM (active)

Cc1nc2ccc(NC(=O)c3ccc(Cl)s3)cc2s1
EC50 [16]: 12.5 µM (active)
EC50 [17]: < 0.1 µM (active)
EC50 [18]: 0.443 µM (active)
EC50 [19]: 0.363 µM (active)
EC50 [20]: < 0.1 µM (active)
EC50 [21]: 0.491 µM (active)

COc1cc(C2Nc3ccc4ncccc4c3C3=C2C(=O)CCC3)cc(OC)c1O (stereo not drawn)
IC50 [13]: 12.7 µM (not active)

CCOc1ccc(OCc2ccc(C(=O)N/N=C(\C)c3ccccn3)cc2)cc1
EC50 [22]: 25.4 µM (inconclusive)
CC50 [23]: 4.15 µM (active)
EC50 [24]: 3.92 µM (inconclusive)
CC50 [25]: 3.37 µM (active)
CC50 [26]: 1.37 µM (active)
AC50 [27]: 3.64 µM (active)
EC50 [28]: 1.25 µM (active)
EC50 [29]: 0.75 µM (active)
CC50 [30]: 5.83 µM (active)
AC50 [31]: 0.712 µM (active)

COc1ccc(C2C(=O)c3ccccc3C2=O)c(OC)c1
EC50 [17]: < 0.1 µM (inconclusive)
EC50 [18]: > 12 µM (not active)
EC50 [19]: 0.104 µM (inconclusive)
EC50 [21]: > 12 µM (not active)
